Reference: patent US20050112033A1, “Multi-well containers, systems, and methods of using the same” (IRM, LLC, priority 2003, published 2005)

Legend:
[1] = Equilibrium dialysis plasma protein binding in a multi-well container; type: in vitro ADME; settings: human plasma vs buffer, 37° C. with gentle shaking, LC/MS detection
Protocol: This example illustrates equilibrium dialysis assays that were performed in a multi-well container of the invention to measure small molecule drug binding to plasma proteins. The assays included filling one well of a pair of wells that communicated via a chamber having a membrane disposed therein with human plasma and the other well of the pair with buffer. The assay included filling multiple pairs of wells in this manner. Each of the small molecules was dispensed into different wells containing plasma. The entire multi-well container was then heated at 37° C. with gentle shaking. […] Binding percentages were determined following detection using liquid chromatography/mass spectrometry.

[2] = literature value; cited from earlier work

Row | Human plasma binding percentage obtained in a multi-well container of the invention [1] [%] | Compound | Plasma binding percentage stated in the literature [2] [%]
1 | >99 | Cc1c(O)cccc1C(=O)N[C@@H](CSc1ccccc1)[C@H](O)CN1C[C@H]2CCCC[C@H]2C[C@H]1C(=O)NC(C)(C)C [Nelfinavir] | >98
2 | 91 | CC(C)NCC(O)COc1cccc2ccccc12 (stereo not shown) [Propranolol] | 93
3 | 65 | COc1cc(Cc2cnc(N)nc2N)cc(OC)c1OC [Trimethoprim] | 44

More lines, now with the values behind:

Row | Compound | Human plasma binding percentage obtained in a multi-well container of the invention [1] [%] | Plasma binding percentage stated in the literature [2] [%]
4 | CN(C)CCCN1c2ccccc2CCc2ccccc21 [Imipramine] | 95 | 95
5 | Cn1c(=O)c2[nH]cnc2n(C)c1=O [Theophylline] |  | 56
6 | CCCCNC(=O)NS(=O)(=O)c1ccc(C)cc1 [Tolbutamide] |  | 96
